Test results taken from PubChem BioAssay AID488890 (Southern Research Specialized Biocontainment Screening …, 2010).
Results filed as inconclusive are left out. Active and inactive are the calls of the source. No rule for the calls is given here.

The compounds below were run on Mycobacterium tuberculosis non-replicating, growth inhibition (assay: growth inhibition of non-replicating M. tuberculosis (AID 488890)).

| SMILES | IC50 |
| --- | --- |
| c1ccc(-c2nnc(SCc3cn4ccsc4n3)o2)cc1 | 11.1 µM (inactive) |
| COCCSc1nnc(NC(=O)CCS(=O)(=O)Cc2ccccc2)s1 | 5.14 µM |
| Cc1ccc(OCCCCc2c(C)n[nH]c2C)cc1 | 8.01 µM |
| O=C(O/N=C/c1ccc2c(c1)OCO2)c1ccc([N+](=O)[O-])cc1 | 11.6 µM (inactive) |
| O=C(CCC(=O)Nc1ccc(Cl)cc1Cl)N/N=C/c1ccc([N+](=O)[O-])o1 | 2.18 µM |
| Cc1cc(OCCOCCNCc2ccccc2)ccc1C(C)C | 15.1 µM (inactive) |
| O=C(CCN1CCC(c2cccs2)=N1)c1cccs1 | 4.15 µM |
| Cc1ccc(NC(=O)COCC(=O)Nc2ccc(C)cc2)cc1 | 14.6 µM (inactive) |
| O=C(N/N=C\c1ccc([N+](=O)[O-])o1)C1COc2ccccc2O1 (stereo unspecified) | 2.27 µM |
| COc1cccc(OCc2nnc(-c3cccs3)o2)c1 | 1.57 µM |
| COc1cccc(-c2cc3nc4c(c(NCC(C)(C)CN(C)C)n3n2)CCCC4)c1 | 26.2 µM (inactive) |
| CCN(CC)c1ccc2cc(C(=O)NCc3ccc(F)cc3)c(=N)oc2c1 | 1.62 µM |
| CCOc1ccc(C(=O)N/N=C(/C)C2C(=O)c3ccccc3C2=O)cc1 | 0.47 µM |
| CCOCC(=O)Nc1ccc(C)c(Cl)c1 | 5.63 µM |
| COCc1cc(=O)[nH]c(Nc2nc3ccccc3o2)n1 | 1.58 µM |
| Cc1cc(C)cc(OC(=O)CCN2C(=O)c3ccccc3C2=O)c1 | 19.4 µM (inactive) |
| S=C1CN=C(c2ccccc2)c2cc(Cl)ccc2N1 | 8.42 µM |
| O=C(Nc1nnc(-c2ccco2)o1)c1ccc([N+](=O)[O-])s1 | 22.4 µM (inactive) |
| Oc1ccccc1/C=N/Nc1nc2ccccc2o1 | 0.19 µM |
| CCOC(=O)c1cc(-c2cccc([N+](=O)[O-])c2)on1 | 0.64 µM |
| C/C(=N/NC(=O)c1cccc(C)c1)c1c(O)cc(C)oc1=O | 9.19 µM |
| CCN(Cc1ccccc1)c1ccc(/C=N/N=C(N)N)cc1 | 5.74 µM |
| N[C@@H](Cc1ccccc1)c1nnc(SC/C=C/c2ccccc2)o1 | 3.49 µM |
| COc1ccc(C(=O)N/N=C/c2cccc3cccnc23)cc1 | 6.88 µM |

| SMILES | IC50 |
| --- | --- |
| CCOC(=O)c1ccc(NC2=CC(=O)C(=O)c3ccccc32)cc1 | 9.94 µM |
| CC1(c2nnc(-c3ccc(F)cc3)o2)CC(c2cccc(Cl)c2)=NO1 (stereo unspecified) | 2.9 µM |
| CCOC(=O)Cn1c(C)c(Br)c(=O)c2cccc(C)c21 | 3.76 µM |
| O=C(NC(=S)N1CCN(C/C=C/c2ccccc2)CC1)c1ccco1 | 36.1 µM (inactive) |
| O=C(COC(=O)c1ccccc1)NCc1cccs1 | 37.4 µM (inactive) |
| Cc1ccc(N/N=C2\CS(=O)(=O)N(C)c3ccsc32)cc1 | 0.31 µM |
| O=C(Nc1nnc(-c2ccccc2Cl)o1)c1ccco1 | 6.7 µM |
| O=C(COC(=O)c1ccc(Br)o1)NC1CCCCC1 | 9.79 µM |
| O=C(Nc1nnc(-c2ccco2)o1)c1ccc(Cl)s1 | 11.2 µM (inactive) |
| CSc1ccc(NC(=O)Nc2cccn(Cc3ccccc3)c2=O)cc1 | 19.4 µM (inactive) |
| CSc1ccc(CNc2ncc(-c3cccc([N+](=O)[O-])c3)n2C)cc1 | 21.1 µM (inactive) |
| O=C(N/N=C/c1ccc[nH]1)c1ccc(Cl)cc1 | 3.88 µM |
| Cc1ccc(OCC(=O)N/N=C/c2ccc([N+](=O)[O-])o2)cc1 | 2.89 µM |
| COc1cc(C=O)ccc1OCCCCOc1ccccc1[N+](=O)[O-] | 27.6 µM (inactive) |
| Cc1cc(N2CCC(C)CC2)nc(-n2nc(C)cc2C)n1 | 0.83 µM |
| CCCCCCC1CC(C)(C(=O)CNc2nncs2)OC1=O (stereo unspecified) | 20.3 µM (inactive) |
| Brc1c(-c2ccc3c(c2)OCO3)nc2ncccn12 | 1.1 µM |
| CCCCOC(=O)c1ccc(NC(=O)C2CCCO2)cc1 (stereo unspecified) | 10 µM (inactive) |
| O=C(NCc1ccc2c(c1)OCO2)c1ccc(Cl)s1 | 1.73 µM |
| O=C(COC(=O)CCc1c[nH]c2ccccc12)Nc1ccc([N+](=O)[O-])cc1 | 9.82 µM |
| CCOc1ccc2nc(NC(=O)c3ccccn3)sc2c1 | 1.03 µM |
| COc1ccc(C(=O)Cn2c(C)nc([N+](=O)[O-])c2Br)cc1 | 19.9 µM (inactive) |
| COc1ccc(/C=C/c2nc3ccccc3c(=O)o2)cc1 | 2.74 µM |
| COc1ccc(C(=O)CCN2CCCCCC2)cc1 | 2.05 µM |

| SMILES | IC50 |
| --- | --- |
| Cc1ccc2c(c1)c(C1=c3ccccc3=NC1=O)c(O)n2C | 4.42 µM |
| CCN(CC)CCNC(=O)c1[nH]c2ccc(OCc3ccccc3)cc2c1C | 29.6 µM (inactive) |
| CCOC(=O)CN(C#N)c1nc(N(C)C)nc(N(C)C)n1 | 8.42 µM |
| C=CCNCC(=O)N1N=C(c2ccc3ccccc3c2)CC1c1ccc(OC)cc1 (stereo unspecified) | 20.6 µM (inactive) |
| CCCNC(=O)NC(=O)COc1ccc2oc3ccccc3c2c1 | 5.09 µM |
| CC(/C=C/c1cccc([N+](=O)[O-])c1)=N\NC(=O)c1ccncc1 | 1.2 µM |
| CC(C)(C)c1ccc(S(=O)(=O)NNC(=O)c2cc3ccccc3[nH]2)cc1 | > 25 µM (inactive) |
| O=C(Nc1ncc(Cc2ccccc2Cl)s1)C1=NCCN1 | 4.18 µM |
| O=C(NCC1CCN(c2ccc(S(=O)(=O)N3CCOCC3)cc2)CC1)c1ccc(Cl)cc1 | 24.1 µM (inactive) |
| CCc1nnc(NC(=O)CN2CCN(Cc3ccc(F)cc3)CC2)s1 | 47 µM (inactive) |
| Cc1cccc(NC(=O)c2cc3ccccc3oc2=O)c1 | 10.5 µM (inactive) |
| CC1(C(=O)OCC(=O)Nc2nnc(-c3ccccc3)o2)CC1(Cl)Cl (stereo unspecified) | 3.19 µM |
| O=C(CCNc1cccc(Cl)c1)c1cccs1 | 11 µM (inactive) |
| O=C(N/N=C(\c1ccccc1)c1cccnc1)c1cccc(F)c1 | 3.88 µM |
| CCOc1ccc(-c2ccc(C=O)o2)c([N+](=O)[O-])c1 | 19 µM (inactive) |
| O=c1cc(-c2ccccc2Cl)oc2c([N+](=O)[O-])c(O)cc(O)c12 | 5.05 µM |
| CC1COC(=O)C(NNc2ccc(Cl)c(Cl)c2)=N1 (stereo unspecified) | 8.67 µM |
| Cn1c(SCCOc2cccc(Cl)c2)nnc1-c1ccncc1 | 11.4 µM (inactive) |
| Cc1cc(C)n(-c2nc(SCCN(C)C)c3c4c(sc3n2)CCCC4)n1 | 6.69 µM |
| COc1cccc(COC(=O)CCNC(=O)c2ccc(Cl)cc2)c1OC | 11.8 µM (inactive) |
| CCCOc1ccc(C(=O)NNC(=S)NC(=O)c2ccco2)cc1 | 3.83 µM |
| CC1CCN(C(=O)COC(=O)CCc2c[nH]c3ccccc23)CC1 | 12.8 µM (inactive) |
| O=C(CCN1CCOCC1)c1ccc(Cl)cc1 | 7.01 µM |
| Clc1ccc(OCCOCCN2CCc3ccccc3C2)c(Cl)c1 | 11.2 µM (inactive) |

| SMILES | IC50 |
| --- | --- |
| C/C(=N\NC(=O)CCCNc1ccc(C)cc1)c1ccccn1 | 9.07 µM |
| CN(CCS(=O)(=O)c1ccc(Cl)cc1)Cc1cccnc1 | 13.2 µM (inactive) |
| COC(=O)COc1cccc(NC(=O)c2ccc(Cl)cc2)c1 | 3.98 µM |
| O=C(CNC(=O)c1ccco1)OCc1ccc(C(=O)Oc2ccccc2)cc1 | 8.17 µM |
| CN1C(=O)CC(N2CCC(c3nc4ccccc4s3)CC2)C1=O (stereo unspecified) | 32.6 µM (inactive) |
| Oc1ccc(Cl)cc1CNCc1ccc(F)cc1 | 11.1 µM (inactive) |
| COc1ccc(C(CCNCc2ccc(OC(C)C)cc2)C(C)C)cc1 (stereo unspecified) | 10.2 µM (inactive) |
| O=C(NNc1nc2ccccc2s1)c1ccc(F)cc1 | 43.8 µM (inactive) |
| O=C1CSC(=S)N1Cc1cccnc1 | 6.18 µM |
| C=CCn1c(O)c(C(C)=Nc2ccc(C(=O)OCC)cc2)c(=O)[nH]c1=O | 7.05 µM |
| CC(CCc1ccccc1)NC(=O)COC(=O)c1cccs1 (stereo unspecified) | 13.4 µM (inactive) |
| CC(C)(C)c1ccc(C(=O)N2CCCC2)s1 | 1.66 µM |
| O=C(Nc1cc(C(F)(F)F)ccc1-n1cncn1)c1ccc([N+](=O)[O-])o1 | 17.9 µM (inactive) |
| Cc1cc(C(=O)N/N=C/c2ccc([N+](=O)[O-])o2)c(C)o1 | 5.51 µM |
| Cc1nn2c(NCc3ccccn3)cc(C(C)C)nc2c1-c1ccccc1 | 1.44 µM |
| CN1C(=O)N(C)c2ccc(C=O)c3cccc1c23 | 3.65 µM |
| CCOc1ccc(OCCSc2ccc(S(=O)(=O)N3CCN(C)CC3)cn2)cc1 | 15.5 µM (inactive) |
| Brc1ccc(-c2ccc(CNCc3ccccn3)o2)cc1 | 1.12 µM |
| Cn1nnnc1N=N/C(=N/Nc1ccccc1)c1ccccc1 | 6.47 µM |
| O=C(Nc1nnc(C2=COCCO2)o1)c1ccc(Cc2ccccc2)cc1 | 30.6 µM (inactive) |
| O=C(OCC(=O)N1CCN(c2ccccc2)CC1)c1ccc(Cl)cc1[N+](=O)[O-] | 14.4 µM (inactive) |
| COc1cccc(OC(=O)c2cc3ccccc3oc2=O)c1 | 14.2 µM (inactive) |
| C/C(=N\NC(=O)c1cc([N+](=O)[O-])cc([N+](=O)[O-])c1)c1ccco1 | 11.4 µM (inactive) |
| O=C(Oc1cccc([N+](=O)[O-])c1)c1ccc2c(=O)n3c(nc2c1)CCC3 | 6.82 µM |

| SMILES | IC50 |
| --- | --- |
| O=C(c1ccccc1)C(CN1CCCC1)c1ccccc1 (stereo unspecified) | 5.51 µM |
| Nc1ccc2c(c1)C(=O)C(=O)c1ccccc1-2 | 2.47 µM |
| Cc1ccn2c(Nc3ccccc3)c(-c3ccccn3)nc2c1 | 10.4 µM (inactive) |
| Clc1cccc(CNCCNCc2cccc(Cl)c2)c1 | 12.1 µM (inactive) |
| Clc1ccc(Cl)c(OCCCCNCc2ccccc2)c1 | 15.1 µM (inactive) |
| COc1ccc(NC(=O)C2COc3ccccc3O2)cc1 (stereo unspecified) | 4.43 µM |
| COc1cccc(NC(=O)c2ccc(-c3ccc([N+](=O)[O-])cc3)o2)c1 | 1.2 µM |
| Cc1cccc(NC(=O)c2n[nH]c([N+](=O)[O-])c2Br)c1C | 7.96 µM |
| O=C1CCC(=O)N1CNc1ccc(Oc2ccccc2)cc1 | 2.02 µM |
| Clc1ccc(Cc2nnc(-c3cccs3)o2)cc1 | < 0.1 µM |
| COc1ccc(COc2cccc(C=O)c2)cc1 | 25.8 µM (inactive) |
| COC(=O)c1ccc(Cn2cc(C(F)(F)F)cc([N+](=O)[O-])c2=O)cc1 | 1.7 µM |
| COC(=O)/C(=C1/Oc2cc(C)oc(=O)c2S1)C(F)(F)F | < 0.1 µM |
| CC(C)c1ccc(N2C(=O)NC(=O)/C(=C/C=C/c3ccco3)C2=O)cc1 | 8.65 µM |
| Cc1ccc(C(C)C)c(OCC(=O)OCc2c(C)noc2C)c1 | 3.51 µM |
| O=C(Nc1nccs1)c1ccccn1 | 14.5 µM (inactive) |
| COc1cccc2cc(C(=O)c3ccc([N+](=O)[O-])cc3)oc12 | 6.05 µM |
| Cc1ccccc1OCC(=O)OCC(=O)c1ccc[nH]1 | 21.2 µM (inactive) |
| CC(NC(=O)COc1ccc(-c2ccccc2)cc1)C1CCCO1 (stereo unspecified) | 8.2 µM |
| O=C1OC(/C=C/c2ccccc2)=NC/1=C\c1cccnc1 | 13 µM (inactive) |
